In patent US20240358693A1, “METHODS OF TREATING PAIN” (Aisa Pharma, Inc., priority 2023, published 2024):

Tested on: participants with SSc-RP
Assay: Average duration of weekly RP attacks (minutes)
Assay type: in vivo, human
Source text: The absolute change in average duration of weekly RP attacks from baseline to the end of each dosing period was and will be a secondary outcome variable. The sponsor-developed participant-informed diary was and will be used to record data. Average duration of weekly RP attacks is defined as the total duration of RP attacks divided by total number of RP attacks within the last 7 days of each dosing period. Total duration of RP attacks during the last 7 days of screening period divided by the total number of RP attacks will be used as baseline for the analysis of all periods. The variable will be calculated similar to frequency data as before.

[1] = Cilnidipine 20 mg, Excluding Outliers, ITT Population - Part A
[2] = Cilnidipine 20 mg, Excluding Outliers, by Baseline RCS, subgroup 1, ITT Population - Part A
[3] = Cilnidipine 20 mg, by Baseline RCS, subgroup 1, ITT Population - Part A
[4] = Pooled Cilnidipine 10 mg and Cilnidipine 10 mg + Tadalafil 5 mg, n=3, Excluding Outliers, ITT Part A
[5] = Pooled Cilnidipine 10 mg and Cilnidipine 10 mg + Tadalafil 5 mg, n=3, ITT Part A
[6] = Pooled Cilnidipine 10 mg and Cilnidipine 10 mg + Tadalafil 5 mg, Baseline RCS subgroup 1 (unnamed), ITT Part A
[7] = Pooled Cilnidipine 10 mg and Cilnidipine 10 mg + Tadalafil 5 mg, Baseline RCS subgroup 2 (unnamed), ITT Part A
[8] = Pooled Cilnidipine 10 mg and Cilnidipine 10 mg + Tadalafil 5 mg, Excluding Outliers, Baseline RCS subgroup 1 (unnamed), ITT Part A
[9] = Pooled Cilnidipine 10 mg and Cilnidipine 10 mg + Tadalafil 5 mg, Excluding Outliers, Baseline RCS subgroup 2 (unnamed), ITT Part A
[10] = Pooled Cilnidipine 10 mg and Cilnidipine 10 mg + Tadalafil 5 mg, Excluding Outliers, ITT Population - Part A
[11] = Pooled Cilnidipine 10 mg and Cilnidipine 10 mg + Tadalafil 5 mg, Excluding Outliers, by Baseline RCS, subgroup 1, ITT Population - Part A

COCCOC(=O)C1=C(C)NC(C)=C(C(=O)OC/C=C/c2ccccc2)C1c1cccc([N+](=O)[O-])c1 (centres unmarked) [Cilnidipine, cilnidipine]
Average Duration of Weekly RP Attacks (All Attacks) Change from Baseline, Median [1]: -1.09 min | Average Duration of Weekly RP Attacks (All Attacks) Percent Change from Baseline, Mean [1]: −24.97% | Average Duration of Weekly RP Attacks (All Attacks) Percent Change from Baseline, Median [1]: −24.97% | Average Duration of Weekly RP Attacks (All Attacks), Mean [1]: 16.73 min | Average Duration of Weekly RP Attacks (All Attacks), Median [1]: 16.73 min | Average Duration of Weekly RP Attacks (All Attacks) Change from Baseline, Mean [2]: -1.09 min | Average Duration of Weekly RP Attacks (All Attacks) Change from Baseline, Median [2]: -1.09 min | Average Duration of Weekly RP Attacks (All Attacks) Percent Change from Baseline, Mean [2]: −24.97% | Average Duration of Weekly RP Attacks (All Attacks) Percent Change from Baseline, Median [2]: −24.97% | Average Duration of Weekly RP Attacks (All Attacks), Mean [2]: 16.73 min | Average Duration of Weekly RP Attacks (All Attacks), Median [2]: 16.73 min | Average Duration of Weekly RP Attacks (All Attacks) Change from Baseline, Mean (Cilnidipine 20 mg, ITT Part A): -1.09 min | Average Duration of Weekly RP Attacks (All Attacks) Change from Baseline, Median (Cilnidipine 20 mg, ITT Part A): -1.09 min | Average Duration of Weekly RP Attacks (All Attacks) Percent Change from Baseline, Mean (Cilnidipine 20 mg, ITT Part A): −24.97% | Average Duration of Weekly RP Attacks (All Attacks) Percent Change from Baseline, Median (Cilnidipine 20 mg, ITT Part A): −24.97% | Average Duration of Weekly RP Attacks (All Attacks), Mean (Cilnidipine 20 mg, ITT Part A): 16.73 min | Average Duration of Weekly RP Attacks (All Attacks), Median (Cilnidipine 20 mg, ITT Part A): 16.73 min | Average Duration of Weekly RP Attacks (All Attacks) Change from Baseline, Mean [3]: -1.09 min | Average Duration of Weekly RP Attacks (All Attacks) Change from Baseline, Median [3]: -1.09 min | Average Duration of Weekly RP Attacks (All Attacks) Percent Change from Baseline, Mean [3]: −24.97% | Average Duration of Weekly RP Attacks (All Attacks) Percent Change from Baseline, Median [3]: −24.97% | Average Duration of Weekly RP Attacks (All Attacks), Mean [3]: 16.73 min | Average Duration of Weekly RP Attacks (All Attacks), Median [3]: 16.73 min | Duration (Cilnidipine (20 mg) (n = 3)): −20% | Mean % reduction in duration (Cilnidipine (20 mg) (n = 3)): 20.0% | Mean duration of attack at baseline (Cilnidipine (20 mg) (n = 3)): 19.4 | Average Duration of Weekly Symptomatic RP Attacks, Change from Baseline, Mean [4]: -12.11 min | Average Duration of Weekly Symptomatic RP Attacks, Change from Baseline, Median [4]: -16.74 min | Average Duration of Weekly Symptomatic RP Attacks, Mean [4]: 29.46 min | Average Duration of Weekly Symptomatic RP Attacks, Median [4]: 31.64 min | Average Duration of Weekly Symptomatic RP Attacks, Percent Change from Baseline, Mean [4]: −22.40% | Average Duration of Weekly Symptomatic RP Attacks, Percent Change from Baseline, Median [4]: −33.84% | Average Duration of Weekly Symptomatic RP Attacks, Change from Baseline, Mean [5]: -12.11 min | Average Duration of Weekly Symptomatic RP Attacks, Change from Baseline, Median [5]: -16.74 min | Average Duration of Weekly Symptomatic RP Attacks, Mean [5]: 29.46 min | Average Duration of Weekly Symptomatic RP Attacks, Median [5]: 31.64 min | Average Duration of Weekly Symptomatic RP Attacks, Percent Change from Baseline, Mean [5]: −22.40% | Average Duration of Weekly Symptomatic RP Attacks, Percent Change from Baseline, Median [5]: −33.84% | Average Duration of Weekly Symptomatic RP Attacks, Change from Baseline, Mean [6]: -8.26 min | Average Duration of Weekly Symptomatic RP Attacks, Change from Baseline, Median [6]: -8.26 min | Average Duration of Weekly Symptomatic RP Attacks, Mean [6]: 24.82 min | Average Duration of Weekly Symptomatic RP Attacks, Median [6]: 24.82 min | Average Duration of Weekly Symptomatic RP Attacks, Percent Change from Baseline, Mean [6]: −16.67% | Average Duration of Weekly Symptomatic RP Attacks, Percent Change from Baseline, Median [6]: −16.67% | Average Duration of Weekly Symptomatic RP Attacks, Change from Baseline, Mean [7]: -19.82 min | Average Duration of Weekly Symptomatic RP Attacks, Change from Baseline, Median [7]: -19.82 min | Average Duration of Weekly Symptomatic RP Attacks, Mean [7]: 38.75 min | Average Duration of Weekly Symptomatic RP Attacks, Median [7]: 38.75 min | Average Duration of Weekly Symptomatic RP Attacks, Percent Change from Baseline, Mean [7]: −33.84% | Average Duration of Weekly Symptomatic RP Attacks, Percent Change from Baseline, Median [7]: −33.84% | Average Duration of Weekly Symptomatic RP Attacks, Change from Baseline, Mean [8]: -8.26 min | Average Duration of Weekly Symptomatic RP Attacks, Change from Baseline, Median [8]: -8.26 min | Average Duration of Weekly Symptomatic RP Attacks, Mean [8]: 24.82 min | Average Duration of Weekly Symptomatic RP Attacks, Median [8]: 24.82 min | Average Duration of Weekly Symptomatic RP Attacks, Percent Change from Baseline, Mean [8]: −16.67% | Average Duration of Weekly Symptomatic RP Attacks, Percent Change from Baseline, Median [8]: −16.67% | Average Duration of Weekly Symptomatic RP Attacks, Change from Baseline, Mean [9]: -19.82 min | Average Duration of Weekly Symptomatic RP Attacks, Change from Baseline, Median [9]: -19.82 min | Average Duration of Weekly Symptomatic RP Attacks, Mean [9]: 38.75 min | Average Duration of Weekly Symptomatic RP Attacks, Median [9]: 38.75 min | Average Duration of Weekly Symptomatic RP Attacks, Percent Change from Baseline, Mean [9]: −33.84% | Average Duration of Weekly Symptomatic RP Attacks, Percent Change from Baseline, Median [9]: −33.84% | Average Duration of Weekly RP Attacks (All Attacks) Change from Baseline, Mean [10]: -9.54 min | Average Duration of Weekly RP Attacks (All Attacks) Change from Baseline, Median [10]: -8.48 min | Average Duration of Weekly RP Attacks (All Attacks) Percent Change from Baseline, Mean [10]: −19.10% | Average Duration of Weekly RP Attacks (All Attacks) Percent Change from Baseline, Median [10]: −21.20% | Average Duration of Weekly RP Attacks (All Attacks), Mean [10]: 27.90 min | Average Duration of Weekly RP Attacks (All Attacks), Median [10]: 31.52 min | Average Duration of Weekly RP Attacks (All Attacks) Change from Baseline, Mean [11]: -4.13 min | Average Duration of Weekly RP Attacks (All Attacks) Change from Baseline, Median [11]: -4.13 min | Average Duration of Weekly RP Attacks (All Attacks) Percent Change from Baseline, Mean [11]: −9.97% | Average Duration of Weekly RP Attacks (All Attacks) Percent Change from Baseline, Median [11]: −9.97% | Average Duration of Weekly RP Attacks (All Attacks), Mean [11]: 24.76 min | Average Duration of Weekly RP Attacks (All Attacks), Median [11]: 24.76 min
